Experimental data published in ChEMBL document CHEMBL5230082, “Recent advances in steroid amino acid conjugates: Old scaffolds with new dimensions” (Eur J Med Chem, 2020).
Converted amounts (≈) assume the structure as drawn. Blank lines part the entries; values can stand above or below the compound they belong to.

Assays:
[1] = system: MDA-MB-231; test: Anticancer activity against human MDA-MB-231 cells assessed as growth inhibition; type: functional
[2] = Anticancer activity against human U-87 MG cells assessed as growth inhibition; type: functional, U-87MG ATCC
[3] = biological target: T1, Hepatic sodium/bile acid cotransporter (Homo sapiens, UniProt Q14973); test: Binding affinity to NTCP (unknown origin) assessed as inhibition constant
T1 sequence (Q14973 whole entry): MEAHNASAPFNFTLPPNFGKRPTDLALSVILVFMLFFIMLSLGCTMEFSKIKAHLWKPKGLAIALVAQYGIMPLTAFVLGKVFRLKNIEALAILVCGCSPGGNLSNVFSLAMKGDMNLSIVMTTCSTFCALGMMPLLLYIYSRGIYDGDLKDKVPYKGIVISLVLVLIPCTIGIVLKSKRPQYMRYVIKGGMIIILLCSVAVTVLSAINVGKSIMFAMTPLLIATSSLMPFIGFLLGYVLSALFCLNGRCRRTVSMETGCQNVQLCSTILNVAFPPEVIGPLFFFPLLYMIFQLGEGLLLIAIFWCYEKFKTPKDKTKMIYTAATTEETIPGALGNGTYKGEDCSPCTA

[4] = biological target: T2, Ileal sodium/bile acid cotransporter (Homo sapiens, UniProt Q12908); test: Binding affinity to ASBT (unknown origin) assessed as inhibition constant
T2 sequence (Q12908 whole entry): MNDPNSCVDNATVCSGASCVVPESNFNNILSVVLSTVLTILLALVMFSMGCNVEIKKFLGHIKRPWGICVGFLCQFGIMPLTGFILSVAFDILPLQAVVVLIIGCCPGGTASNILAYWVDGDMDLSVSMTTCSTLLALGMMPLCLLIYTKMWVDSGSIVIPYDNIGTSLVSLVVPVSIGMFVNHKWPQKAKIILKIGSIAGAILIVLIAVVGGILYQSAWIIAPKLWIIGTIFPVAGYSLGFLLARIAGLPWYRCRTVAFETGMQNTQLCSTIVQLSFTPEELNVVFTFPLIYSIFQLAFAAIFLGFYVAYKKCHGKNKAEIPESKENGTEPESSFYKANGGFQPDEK

[5] = system: MCF7; test: Antiproliferative activity against human MCF7 by MTT assay; type: functional, cell-based
[6] = Inhibition of Sialyltransferase (unknown origin); parameters: species or system Homo sapiens
[7] = biological target: Integrin alpha-M/beta-2 (Homo sapiens, UniProt P05107+P11215); test: Antagonist activity at integrin CD11B/CD18 (unknown origin); type: protein-complex assay
Chain of Integrin alpha-M/beta-2 (P05107 23-769 limits assumed, other chains not shown): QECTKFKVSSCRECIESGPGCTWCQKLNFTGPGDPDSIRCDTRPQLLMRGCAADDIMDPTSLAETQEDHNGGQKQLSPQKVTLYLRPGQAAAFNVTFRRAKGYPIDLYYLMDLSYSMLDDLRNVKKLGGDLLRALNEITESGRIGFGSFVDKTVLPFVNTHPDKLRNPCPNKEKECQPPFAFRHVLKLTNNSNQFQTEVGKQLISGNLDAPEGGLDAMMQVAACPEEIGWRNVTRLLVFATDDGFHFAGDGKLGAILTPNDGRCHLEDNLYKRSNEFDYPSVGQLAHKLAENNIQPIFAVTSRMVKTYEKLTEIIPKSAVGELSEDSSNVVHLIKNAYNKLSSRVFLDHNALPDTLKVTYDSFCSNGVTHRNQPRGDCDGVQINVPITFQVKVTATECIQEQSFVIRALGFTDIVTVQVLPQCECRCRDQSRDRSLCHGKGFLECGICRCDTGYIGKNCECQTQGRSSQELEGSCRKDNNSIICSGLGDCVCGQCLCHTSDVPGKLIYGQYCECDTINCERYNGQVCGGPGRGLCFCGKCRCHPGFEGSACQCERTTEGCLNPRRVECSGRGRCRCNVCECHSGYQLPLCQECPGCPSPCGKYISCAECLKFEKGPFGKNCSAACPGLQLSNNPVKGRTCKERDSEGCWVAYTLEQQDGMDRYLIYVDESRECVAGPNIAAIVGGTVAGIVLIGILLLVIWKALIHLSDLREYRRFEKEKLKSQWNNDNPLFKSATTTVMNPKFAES

[8] = system: Staphylococcus aureus; test: Antibacterial activity against methicillin-resistant Staphylococcus aureus; type: functional
[9] = system: Escherichia coli; test: Antibacterial activity against Escherichia coli; type: functional
[10] = system: Klebsiella pneumoniae; test: Antibacterial activity against Klebsiella pneumoniae; type: functional
[11] = system: Acinetobacter baumannii; test: Antibacterial activity against Acinetobacter baumannii; type: functional
[12] = system: Rattus norvegicus; test: Antiarrhythmic activity in pentobarbital anesthetized rat model assessed as number of ventricular ectopics at 10 mg/kg, iv; type: functional
[13] = system: Rattus norvegicus; test: Antiarrhythmic activity in pentobarbital anesthetized rat model assessed as ventricular fibrillation at 10 mg/kg, iv relative to control; type: functional

GI50 [1]: 1.41 µM
Compound: CC[C@H](C)[C@H](NC(=O)CC[C@@H](C)[C@H]1CC[C@H]2[C@@H]3[C@H](O)C[C@@H]4C[C@H](O)CC[C@]4(C)[C@H]3C[C@H](O)[C@]12C)C(=O)Nc1nc2ccccc2s1

IC50 [5]: > 100 µM
Compound: COC(=O)[C@H](CCCCNC(=O)CC[C@H](C)[C@H]1CC[C@H]2[C@@H]3CC[C@@H]4C[C@H](OC(C)=O)CC[C@]4(C)[C@H]3C[C@H](OC(C)=O)[C@]12C)NC(=O)CC[C@@H](C)[C@H]1CC[C@H]2[C@@H]3CC[C@@H]4C[C@H](OC(C)=O)CC[C@]4(C)[C@H]3C[C@H](OC(C)=O)[C@]12C

IC50 [7]: 10.9 µM
Compound: CO[C@H]1CC[C@@]2(C)[C@@H](CC[C@H]3[C@@H]2CC[C@@]2(C)[C@H]3C[C@H](C(=O)N[C@@H](CCCNC(=N)N)C(=O)NCC(=O)N[C@@H](CC(=O)O)C(=O)NCc3ccccc3)O[C@]23CCCO3)C1

MIC [9]: 1.5 µg/mL
Compound: CCCCCCCCNCCC[C@@H](C)[C@H]1CC[C@H]2[C@@H]3[C@H](OCCCN)C[C@@H]4C[C@H](OCCCN)CC[C@]4(C)[C@H]3C[C@H](OCCCN)[C@]12C

IC50 [7]: 6.5 µM
Compound: CO[C@H]1CC[C@@]2(C)[C@@H](CC[C@H]3[C@@H]2CC[C@@]2(C)[C@H]3C[C@H](C(=O)N[C@@H](CCCNC(=N)N)C(=O)NCC(=O)N[C@@H](CC(=O)O)C(N)=O)O[C@]23CCCO3)C1

IC50 [5]: < 10 µM
Compound: COC(=O)[C@H](CCCCNC(=O)CC[C@H](C)[C@H]1CC[C@H]2[C@@H]3[C@H](O)C[C@@H]4C[C@H](O)CC[C@]4(C)[C@H]3C[C@H](O)[C@]12C)NC(=O)CC[C@@H](C)[C@H]1CC[C@H]2[C@@H]3[C@H](O)C[C@@H]4C[C@H](O)CC[C@]4(C)[C@H]3C[C@H](O)[C@]12C

GI50 [1]: 1.35 µM
Compound: CC[C@H](C)[C@H](NC(=O)CC[C@@H](C)[C@H]1CC[C@H]2[C@@H]3[C@H](O)C[C@@H]4C[C@H](O)CC[C@]4(C)[C@H]3C[C@H](O)[C@]12C)C(=O)Nc1ccccc1

IC50 [5]: < 10 µM
Compound: COC(=O)[C@H](CCCCNC(=O)CC[C@H](C)[C@H]1CC[C@H]2[C@@H]3CC[C@@H]4C[C@H](O)CC[C@]4(C)[C@H]3C[C@H](O)[C@]12C)NC(=O)CC[C@@H](C)[C@H]1CC[C@H]2[C@@H]3CC[C@@H]4C[C@H](O)CC[C@]4(C)[C@H]3C[C@H](O)[C@]12C

IC50 [5]: > 50 µM
Compound: C[C@H](CCC(=O)N[C@@H](CCCCNC(=O)CC[C@H](C)[C@H]1CC[C@H]2[C@@H]3[C@H](O)C[C@@H]4C[C@H](O)CC[C@]4(C)[C@H]3C[C@H](O)[C@]12C)C(=O)O)[C@H]1CC[C@H]2[C@@H]3[C@H](O)C[C@@H]4C[C@H](O)CC[C@]4(C)[C@H]3C[C@H](O)[C@]12C

Ki [3]: 4.21 µM
Ki [4]: 20.4 µM
Compound: C[C@H](CCC(=O)NCC(=O)O)[C@H]1CC[C@H]2[C@@H]3C(=O)C[C@@H]4C[C@H](O)CC[C@]4(C)[C@H]3CC[C@]12C

IC50 [6]: 7 µM
Compound: CCCP(=O)(OCC)C(Cc1cn(CCC[C@@H](C)[C@H]2CC[C@H]3[C@@H]4CC[C@@H]5C[C@H](O)CC[C@]5(C)[C@H]4CC[C@]23C)nn1)C(=O)O (some centres not stated)

Ki [3]: 9.29 µM
Ki [4]: 15.6 µM
Compound: C[C@H](CCC(=O)NCC(=O)O)[C@H]1CC[C@H]2[C@@H]3[C@H](OC(=O)c4cccnc4)C[C@@H]4C[C@H](O)CC[C@]4(C)[C@H]3CC[C@]12C

Ki [3]: 11.8 µM
Ki [4]: 15.2 µM
Compound: C[C@H](CCC(=O)NCC(=O)O)[C@H]1CC[C@H]2[C@@H]3[C@@H](OC(=O)c4cccnc4)C[C@@H]4C[C@H](O)CC[C@]4(C)[C@H]3CC[C@]12C

IC50 [5]: > 50 µM
Compound: C[C@H](CCC(=O)N[C@@H](CCCCNC(=O)CC[C@H](C)[C@H]1CC[C@H]2[C@@H]3CC[C@@H]4C[C@H](O)CC[C@]4(C)[C@H]3C[C@H](O)[C@]12C)C(=O)O)[C@H]1CC[C@H]2[C@@H]3CC[C@@H]4C[C@H](O)CC[C@]4(C)[C@H]3C[C@H](O)[C@]12C

Continued, compound first:

Compound: CC(C)[C@H](NC(=O)CC[C@@H](C)[C@H]1CC[C@H]2[C@@H]3[C@H](O)C[C@@H]4C[C@H](O)CC[C@]4(C)[C@H]3C[C@H](O)[C@]12C)C(=O)Nc1ccncc1
GI50 [2]: 2.46 µM

Compound: C[C@H](CCC(=O)NCC(=O)O)[C@H]1CC[C@H]2[C@@H]3[C@@H](OC(=O)c4ccc(F)cc4)C[C@@H]4C[C@H](O)CC[C@]4(C)[C@H]3CC[C@]12C
Ki [3]: 2.55 µM
Ki [4]: 8.39 µM

Compound: COc1cccc2c1C(=O)c1c(O)c3c(c(O)c1C2=O)C[C@@](O)(C(=O)CO)C[C@@H]3O[C@H]1C[C@H](N)[C@H](O)[C@H](C)O1 [DOXORUBICIN]
GI50 [1]: 1 µM
GI50 [2]: 2.6 µM

Compound: C[C@H](CCCn1cc(CCCC(=O)O)nn1)[C@H]1CC[C@H]2[C@@H]3CC[C@@H]4C[C@H](O)CC[C@]4(C)[C@H]3CC[C@]12C
IC50 [6]: 5 µM

Compound: C[C@H](CCC(=O)O)[C@H]1CC[C@H]2[C@@H]3CC[C@@H]4C[C@H](OC(=O)[C@H](N)CC(=O)O)CC[C@]4(C)[C@H]3CC[C@]12C
IC50 [6]: 6 µM

Compound: Cc1ccc(NC(=O)[C@H](C)NC(=O)CC[C@@H](C)[C@H]2CC[C@H]3[C@@H]4[C@H](O)C[C@@H]5C[C@H](O)CC[C@]5(C)[C@H]4C[C@H](O)[C@]23C)cc1
GI50 [1]: 4.52 µM
GI50 [2]: 1.62 µM

Compound: Cc1c(NC(=O)[C@H](C)NC(=O)CC[C@@H](C)[C@H]2CC[C@H]3[C@@H]4[C@H](O)C[C@@H]5C[C@H](O)CC[C@]5(C)[C@H]4C[C@H](O)[C@]23C)c(=O)n(-c2ccccc2)n1C
GI50 [2]: 2.49 µM

Compound: COC(=O)CCCN[C@@H]1CC[C@@]2(C)[C@H](C1)C[C@@H](NCCCC(=O)OC)[C@@H]1[C@@H]2CC[C@]2(C)[C@@H]([C@H](C)CCCC(C)C)CC[C@@H]12
MIC [8]: 2 µg/mL (≈ 3.32 µM)

Compound: CC(C)[C@H](N)C(=O)NCC(=O)OO[C@H]1C[C@H]2[C@@H]([C@H](OC(=O)CNC(=O)[C@@H](N)C(C)C)C[C@@H]3C[C@H](OC(=O)CNC(=O)[C@@H](N)C(C)C)CC[C@@]32C)[C@@H]2CC[C@H]([C@H](C)CCC(=O)OCc3ccccc3)[C@@]12C
MIC [9]: 8 µM
MIC [10]: 16 µM (≈ 15.7 µg/mL)
MIC [11]: 16 µM (≈ 15.7 µg/mL)

Compound: C[C@]12C[C@H](O)[C@@H](NC(=O)CN)C[C@H]1CC[C@@H]1[C@@H]2CC[C@]2(C)C(=O)CC[C@@H]12
Activity [12]: 172
Activity [13]: 11%

Compound: C[C@H](CCC(=O)NCC(=O)O)[C@H]1CC[C@H]2[C@@H]3[C@H](O)C[C@@H]4C[C@H](OC(=O)c5cccnc5)CC[C@]4(C)[C@H]3CC[C@]12C
Ki [3]: 5.38 µM
Ki [4]: 6.45 µM

Compound: CCCCCCCCNCCC[C@@H](C)[C@H]1CC[C@H]2[C@@H]3[C@H](OCCCNC(=N)N)C[C@@H]4C[C@H](OCCCNC(=N)N)CC[C@]4(C)[C@H]3C[C@H](OCCCNC(=N)N)[C@]12C
MIC [9]: 1 µg/mL

Compound: POLYMYXIN B
MIC [9]: 1.8 µg/mL
